US20050255491A1, “Small molecule and peptide arrays and uses thereof” (priority 2003, published 2005)

What was measured:
[1] = biological target: antibodies specific for the respective peptide antigens; details: antibody against the listed peptide; value taken from the reference; read-out: Affinity KD; cited from earlier work
[2] = system: alkaline protease from Bacillus sp. PS719; details: cited from earlier work
[3] = system: antibody P1 (specific for PSA-derived PET EPAELTDA); experiment: Peptide competition assay, antibody P1; format: binding; details: for fold higher concentration at which nearest neighbor is still ineffective: relative to antigen PET EPAELTDA
Protocol: (§1) In certain embodiments of the invention, a peptide competition assay may be used to determine the binding specificity of a capture agent towards its target PET, as compared to several nearest neighbor sequences of the PET. The same protocol can be adapted for small molecule-based competition assay
(§2) For a typical peptide competition assay, the following illustrative protocol may be used: 1 μg/100 μl/well of each target peptide is coated in Maxisorb Plates with coating buffer (carbonate buffer, pH 9.6) overnight at 4° C., or 1 hour at room temperature. The plates are washed with 300 μl of PBST (1×PBS/0.05% Tween 20) for 4 times. Then 300 μl of blocking buffer (2% BSA/PBST) is added and the plates are incubated for 1 hour at room temperature. Following blocking, the plates are washed with 300 μl of PBST for 4 times.
Synthesized competition peptides are dissolved in water to a final concentration of 2 mM solution. Serial dilution of competition peptides (for example, from 100 pM to 100 μM) in digested human serum are prepared. These competition peptides at particular concentrations are then mixed with equal amounts of primary antibodies against the target peptide. These mixtures are then added to plate wells with immobilized target peptides respectively. Binding is allowed to proceed for 2 hours at room temperature. The plates are washed with 300 μl of PBST for 4 times. Then labeled secondary antibody against the primary antibody, such as 100 μl of 5,000× diluted anti-rabbit-IgG-HRP, is added and incubated for 1 more hour at room temperature. The plates are washed with 300 μl of PBST for 6 times. For detection of the HRP label activity, add 100 μl of TMB substrate (for HRP) and incubate for 15 minutes at room temperature. Add 100 μl of stop buffer (2N HCL) and read the plates at OD450. A peptide competition curve is plotted using the ABS at OD450 versus the competitor peptide concentrations. […]

[4] = system: antibody C1 (specific for CRP-derived PET YEVQGEVF); experiment: Peptide competition assay, antibody C1; format: binding; details: competitor peptide against immobilized PET, neighbors completely ineffective even at the stated concentration, read-out: half-maximum effective peptide concentration
Protocol: as §1, §2
Synthesized competition peptides are dissolved in water to a final concentration of 2 mM solution. Serial dilution of competition peptides (for example, from 100 pM to 100 μM) in digested human serum are prepared. These competition peptides at particular concentrations are then mixed with equal amounts of primary antibodies against the target peptide. These mixtures are then added to plate wells with immobilized target peptides respectively. Binding is allowed to proceed for 2 hours at room temperature. […] Add 100 μl of stop buffer (2N HCL) and read the plates at OD450. […]

[5] = system: obese (NZO×NON)F1 male mice; details: chronic treatment; cited from earlier work
[6] = biological target: antibody C1, specific for the CRP-derived 8-mer PET sequence YEVQGEVF; experiment: peptide competition assay, soluble PET against immobilized PET for antibody C1
[7] = biological target: antibody C1, specific for the CRP-derived 8-mer PET sequence YEVQGEVF; experiment: peptide competition ELISA: soluble peptide series against the same immobilized peptide for a fixed concentration of antibody, in 10 mM digested serum proteins, HRP secondary antibody, ABS 450
[8] = biological target: antibody C2, specific for the CRP PET sequence GYSIFSYA; experiment: as above
[9] = biological target: PET-specific antibody used in the peptide competition assay for the Troponin T peptide …; experiment: peptide competition ELISA with immobilized peptide, in 10mM digested serum proteins, ABS 450
[10] = biological target: antibody used in the PET-based peptide competition assay for the Survivin peptide …; experiment: Survivin Peptide Competitive Assay, ABS 450
[11] = liberation of p-nitroaniline from the substrate

## HHHHH [HHHHH (HIS tag), 5-aa HIS tag peptide]
[1]
  Kd: 25 nM

## CRGTGSYNRSSFESSSG
[1]
  Kd: 2.8 nM

## N-carbobenzoxy (CBZ)-L-arginine-p-nitroanilide
[2]; [11]
  Km: 600 µM
  Vmax: 1.0 μmol min^−1 mg protein^−1

## EPVELTSA [nearest-neighbor 8-mer of EPAELTDA found in the human proteome]
[3]
  fold higher concentration at which nearest neighbor is still ineffective: 25,000 fold

## Cc1ccc(S(=O)(=O)N[C@@H](CCCCN)C(=O)CCl)cc1 [TLCK, N-α-p-tosyl-L-lysine chloromethyl ketone]
[2]
  inhibition of protease activity: completely inhibited

## O=S(=O)(F)Cc1ccccc1 [PMSF, phenylmethylsulfonyl fluoride]
[2]
  inhibition of protease activity: completely inhibited

## PQSDPSVEPPLS
[1]
  Kd: 16 nM

## GATPEDLNQKLAGN
[1]
  Kd: 1.4 nM

## MDYKAFDN (FLAG tag) [8-aa FLAG tag peptide]
[1]
  Kd: 2.3 nM

## EPAELTDA
[3]; competitor peptide against immobilized PET, read-out: half-maximum effective peptide concentration
  IC50: ~40 nM

## YEVQGEVF
[4]
  IC50: ~1000 nM

## YDVPDYAS (HA tag)
[1]
  Kd: 2 nM

## O=c1oc(Cl)c(Cl)c2ccccc12 [DCI, 3,4-dichloroisocoumarin]
[2]
  inhibition of protease activity: completely inhibited

## NYRAYATEPHAKKKS [15-aa peptide antigen of a literature antibody (EJB 267:1819, 2000)]
[1]
  Kd: 0.5 nM

## RYDIEAKVTK [10-aa peptide antigen of a literature antibody (JI 169:6992, 2002)]
[1]
  Kd: 3.5 nM

## CN(CCOc1ccc(CC2SC(=O)NC2=O)cc1)c1ccccn1 (stereo not drawn) [rosiglitazone]
[5]
  effect on hepatic steatosis: markedly exacerbated

## DPTQLTDA [nearest-neighbor 8-mer of EPAELTDA found in the human proteome]
[3]
  fold higher concentration at which nearest neighbor is still ineffective: 25,000 fold

## YEVQGEVF [CRP-derived 8-mer PET peptide YEVQGEVF]
[6]
  IC50: 1000 nM
[7]
  Detection Limit: 100 pM

## GYSIFSYA [CRP PET peptide GYSIFSYA]
[8]
  Detection Limit: 1 nM
  IC50 (read off the curve): 1000 nM

## SFMPNLVPPK [Troponin T tryptic PET-peptide …]
[9]
  IC50 (read off the curve): 20 nM

## MGAPTLPPAWQPF [Survivin peptide …]
[10]
  IC50 (read off the curve): 20 nM
